Each block holds one molecule with its values, some of them ahead of it. The source made the active and inactive calls.
Experiments:
[1] = target: T1, Short transient receptor potential channel 4 (Mus musculus, UniProt Q9QUQ5); assay: mouse TRPC4 channel inhibitors, dose response, cell-based, HEK293 TRPC4/mu-opioid, Fluo-4 calcium (AID 434942); assay type: functional;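 note: potency of inhibitors blocking the TRPC4 calcium response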
T1 sequence (Q9QUQ5 whole entry): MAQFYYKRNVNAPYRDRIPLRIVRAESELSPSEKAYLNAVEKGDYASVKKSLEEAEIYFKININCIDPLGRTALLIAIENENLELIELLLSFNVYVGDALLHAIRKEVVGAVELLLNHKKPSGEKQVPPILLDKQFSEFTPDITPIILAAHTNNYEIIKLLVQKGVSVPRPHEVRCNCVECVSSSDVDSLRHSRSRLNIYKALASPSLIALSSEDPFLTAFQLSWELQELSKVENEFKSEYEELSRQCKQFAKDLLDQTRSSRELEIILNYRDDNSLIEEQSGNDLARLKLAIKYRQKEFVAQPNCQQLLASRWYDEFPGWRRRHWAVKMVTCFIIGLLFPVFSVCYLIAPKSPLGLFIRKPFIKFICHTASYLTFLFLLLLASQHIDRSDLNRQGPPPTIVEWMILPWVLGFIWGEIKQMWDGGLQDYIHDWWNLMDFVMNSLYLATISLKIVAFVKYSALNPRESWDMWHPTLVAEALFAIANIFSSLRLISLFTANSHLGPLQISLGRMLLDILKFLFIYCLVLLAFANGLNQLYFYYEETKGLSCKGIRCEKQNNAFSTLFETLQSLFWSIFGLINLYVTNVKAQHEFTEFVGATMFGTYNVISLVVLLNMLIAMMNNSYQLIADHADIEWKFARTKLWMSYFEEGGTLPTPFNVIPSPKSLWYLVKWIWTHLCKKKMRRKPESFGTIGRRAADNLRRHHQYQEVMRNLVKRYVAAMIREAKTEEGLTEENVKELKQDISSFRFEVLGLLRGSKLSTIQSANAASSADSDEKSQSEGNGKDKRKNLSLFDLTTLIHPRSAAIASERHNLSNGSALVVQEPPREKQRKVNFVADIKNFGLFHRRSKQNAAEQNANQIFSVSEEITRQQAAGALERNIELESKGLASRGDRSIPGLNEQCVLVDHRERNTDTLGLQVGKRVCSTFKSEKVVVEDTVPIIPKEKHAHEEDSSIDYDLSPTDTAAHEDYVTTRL

[2] = target: Photoreceptor-specific nuclear receptor (Homo sapiens, UniProt Q9Y5X4); assay type: functional;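 note: potency for compounds that break the NR2E3 corepressor complex and count as activators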
Sequence of Photoreceptor-specific nuclear receptor (Q9Y5X4 whole entry): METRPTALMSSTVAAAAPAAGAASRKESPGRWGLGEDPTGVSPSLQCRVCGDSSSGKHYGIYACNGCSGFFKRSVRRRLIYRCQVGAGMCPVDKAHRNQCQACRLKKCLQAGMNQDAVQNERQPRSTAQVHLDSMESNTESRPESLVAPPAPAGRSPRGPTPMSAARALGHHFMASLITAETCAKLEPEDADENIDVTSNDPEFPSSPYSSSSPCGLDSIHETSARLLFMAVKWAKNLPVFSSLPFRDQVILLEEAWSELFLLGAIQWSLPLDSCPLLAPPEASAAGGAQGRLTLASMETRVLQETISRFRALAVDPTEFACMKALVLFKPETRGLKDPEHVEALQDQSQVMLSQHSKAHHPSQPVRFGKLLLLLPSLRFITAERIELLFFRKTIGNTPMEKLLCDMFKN

[3] = target: T2, Zinc finger protein mex-5 (Caenorhabditis elegans, UniProt Q9XUB2); assay: MEX-5/TCR-2 RNA interaction inhibitors, dose response, biochemical, C. elegans, fluorescence polarization (AID 1960)
T2 sequence (Q9XUB2 whole entry): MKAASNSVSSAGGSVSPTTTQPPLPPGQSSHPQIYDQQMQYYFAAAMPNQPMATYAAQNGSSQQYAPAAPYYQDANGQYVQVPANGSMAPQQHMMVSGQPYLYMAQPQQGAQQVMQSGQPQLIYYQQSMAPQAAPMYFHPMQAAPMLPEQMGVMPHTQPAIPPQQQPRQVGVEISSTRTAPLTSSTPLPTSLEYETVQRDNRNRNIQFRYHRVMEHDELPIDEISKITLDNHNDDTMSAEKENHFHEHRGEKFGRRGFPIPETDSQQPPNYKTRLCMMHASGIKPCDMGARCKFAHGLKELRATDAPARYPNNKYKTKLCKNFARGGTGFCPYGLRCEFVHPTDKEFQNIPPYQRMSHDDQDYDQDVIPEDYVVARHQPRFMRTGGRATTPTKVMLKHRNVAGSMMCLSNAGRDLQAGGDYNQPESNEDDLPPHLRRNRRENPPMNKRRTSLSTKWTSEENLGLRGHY

[4] = target: Peroxisome proliferator-activated receptor gamma/Nuclear receptor corepressor 2 (Homo sapiens, UniProt P37231+Q9Y618); assay type: functional
Genome polyprotein = Genome polyprotein (dengue virus type 2, UniProt P29990); assay: Dengue-2 NS5 methyltransferase inhibitors, primary screen, biochemical, confirmation dose response (AID 588689); assay type: functional
Sequence of Genome polyprotein (P29990 2492-3391 limits assumed): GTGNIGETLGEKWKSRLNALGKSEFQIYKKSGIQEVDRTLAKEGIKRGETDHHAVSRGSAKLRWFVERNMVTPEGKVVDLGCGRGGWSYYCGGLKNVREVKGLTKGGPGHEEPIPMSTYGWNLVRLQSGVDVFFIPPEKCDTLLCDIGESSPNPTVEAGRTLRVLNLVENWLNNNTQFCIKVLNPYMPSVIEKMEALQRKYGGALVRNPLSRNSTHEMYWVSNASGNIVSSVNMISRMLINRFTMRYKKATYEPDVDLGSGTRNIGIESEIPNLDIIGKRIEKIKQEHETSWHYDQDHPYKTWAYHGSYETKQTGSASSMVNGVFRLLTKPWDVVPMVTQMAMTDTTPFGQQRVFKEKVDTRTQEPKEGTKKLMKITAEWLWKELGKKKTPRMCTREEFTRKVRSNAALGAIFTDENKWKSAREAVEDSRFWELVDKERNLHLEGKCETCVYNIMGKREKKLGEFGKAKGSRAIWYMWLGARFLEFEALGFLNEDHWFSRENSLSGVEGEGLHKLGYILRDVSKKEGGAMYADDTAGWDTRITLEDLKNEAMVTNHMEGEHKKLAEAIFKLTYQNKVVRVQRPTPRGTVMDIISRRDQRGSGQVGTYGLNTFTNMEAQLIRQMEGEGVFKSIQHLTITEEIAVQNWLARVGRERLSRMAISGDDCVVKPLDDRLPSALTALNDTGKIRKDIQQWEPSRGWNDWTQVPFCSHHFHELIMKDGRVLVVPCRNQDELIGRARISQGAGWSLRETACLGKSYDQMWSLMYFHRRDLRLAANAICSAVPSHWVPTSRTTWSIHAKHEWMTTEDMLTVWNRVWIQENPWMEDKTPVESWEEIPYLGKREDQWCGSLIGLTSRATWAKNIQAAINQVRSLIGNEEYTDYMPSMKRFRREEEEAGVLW

[5] = target: T3, RNA-binding protein pos-1 (Caenorhabditis elegans, UniProt G5EF15); assay: inhibitors of POS-1/mex-3 RNA binding, dose response, biochemical, fluorescence polarization (AID 1964);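 note: purified POS-1 fused to maltose binding protein made in E. coli; potency of compounds blocking POS-1 binding to fluorescent RNA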
T3 sequence (G5EF15 whole entry): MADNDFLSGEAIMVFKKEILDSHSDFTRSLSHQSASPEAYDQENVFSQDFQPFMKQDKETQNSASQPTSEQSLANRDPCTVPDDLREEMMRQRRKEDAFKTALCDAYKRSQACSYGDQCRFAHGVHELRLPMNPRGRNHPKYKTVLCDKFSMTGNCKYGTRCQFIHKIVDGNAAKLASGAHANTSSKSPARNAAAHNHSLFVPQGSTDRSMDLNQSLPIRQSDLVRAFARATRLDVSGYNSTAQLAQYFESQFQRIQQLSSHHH

[6] = target: Voltage-dependent T-type calcium channel subunit alpha-1H (Homo sapiens, UniProt O95180); assay type: functional;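 note: channel activity triggered by adding a high calcium stimulation buffer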
Sequence of Voltage-dependent T-type calcium channel subunit alpha-1H (O95180 whole entry): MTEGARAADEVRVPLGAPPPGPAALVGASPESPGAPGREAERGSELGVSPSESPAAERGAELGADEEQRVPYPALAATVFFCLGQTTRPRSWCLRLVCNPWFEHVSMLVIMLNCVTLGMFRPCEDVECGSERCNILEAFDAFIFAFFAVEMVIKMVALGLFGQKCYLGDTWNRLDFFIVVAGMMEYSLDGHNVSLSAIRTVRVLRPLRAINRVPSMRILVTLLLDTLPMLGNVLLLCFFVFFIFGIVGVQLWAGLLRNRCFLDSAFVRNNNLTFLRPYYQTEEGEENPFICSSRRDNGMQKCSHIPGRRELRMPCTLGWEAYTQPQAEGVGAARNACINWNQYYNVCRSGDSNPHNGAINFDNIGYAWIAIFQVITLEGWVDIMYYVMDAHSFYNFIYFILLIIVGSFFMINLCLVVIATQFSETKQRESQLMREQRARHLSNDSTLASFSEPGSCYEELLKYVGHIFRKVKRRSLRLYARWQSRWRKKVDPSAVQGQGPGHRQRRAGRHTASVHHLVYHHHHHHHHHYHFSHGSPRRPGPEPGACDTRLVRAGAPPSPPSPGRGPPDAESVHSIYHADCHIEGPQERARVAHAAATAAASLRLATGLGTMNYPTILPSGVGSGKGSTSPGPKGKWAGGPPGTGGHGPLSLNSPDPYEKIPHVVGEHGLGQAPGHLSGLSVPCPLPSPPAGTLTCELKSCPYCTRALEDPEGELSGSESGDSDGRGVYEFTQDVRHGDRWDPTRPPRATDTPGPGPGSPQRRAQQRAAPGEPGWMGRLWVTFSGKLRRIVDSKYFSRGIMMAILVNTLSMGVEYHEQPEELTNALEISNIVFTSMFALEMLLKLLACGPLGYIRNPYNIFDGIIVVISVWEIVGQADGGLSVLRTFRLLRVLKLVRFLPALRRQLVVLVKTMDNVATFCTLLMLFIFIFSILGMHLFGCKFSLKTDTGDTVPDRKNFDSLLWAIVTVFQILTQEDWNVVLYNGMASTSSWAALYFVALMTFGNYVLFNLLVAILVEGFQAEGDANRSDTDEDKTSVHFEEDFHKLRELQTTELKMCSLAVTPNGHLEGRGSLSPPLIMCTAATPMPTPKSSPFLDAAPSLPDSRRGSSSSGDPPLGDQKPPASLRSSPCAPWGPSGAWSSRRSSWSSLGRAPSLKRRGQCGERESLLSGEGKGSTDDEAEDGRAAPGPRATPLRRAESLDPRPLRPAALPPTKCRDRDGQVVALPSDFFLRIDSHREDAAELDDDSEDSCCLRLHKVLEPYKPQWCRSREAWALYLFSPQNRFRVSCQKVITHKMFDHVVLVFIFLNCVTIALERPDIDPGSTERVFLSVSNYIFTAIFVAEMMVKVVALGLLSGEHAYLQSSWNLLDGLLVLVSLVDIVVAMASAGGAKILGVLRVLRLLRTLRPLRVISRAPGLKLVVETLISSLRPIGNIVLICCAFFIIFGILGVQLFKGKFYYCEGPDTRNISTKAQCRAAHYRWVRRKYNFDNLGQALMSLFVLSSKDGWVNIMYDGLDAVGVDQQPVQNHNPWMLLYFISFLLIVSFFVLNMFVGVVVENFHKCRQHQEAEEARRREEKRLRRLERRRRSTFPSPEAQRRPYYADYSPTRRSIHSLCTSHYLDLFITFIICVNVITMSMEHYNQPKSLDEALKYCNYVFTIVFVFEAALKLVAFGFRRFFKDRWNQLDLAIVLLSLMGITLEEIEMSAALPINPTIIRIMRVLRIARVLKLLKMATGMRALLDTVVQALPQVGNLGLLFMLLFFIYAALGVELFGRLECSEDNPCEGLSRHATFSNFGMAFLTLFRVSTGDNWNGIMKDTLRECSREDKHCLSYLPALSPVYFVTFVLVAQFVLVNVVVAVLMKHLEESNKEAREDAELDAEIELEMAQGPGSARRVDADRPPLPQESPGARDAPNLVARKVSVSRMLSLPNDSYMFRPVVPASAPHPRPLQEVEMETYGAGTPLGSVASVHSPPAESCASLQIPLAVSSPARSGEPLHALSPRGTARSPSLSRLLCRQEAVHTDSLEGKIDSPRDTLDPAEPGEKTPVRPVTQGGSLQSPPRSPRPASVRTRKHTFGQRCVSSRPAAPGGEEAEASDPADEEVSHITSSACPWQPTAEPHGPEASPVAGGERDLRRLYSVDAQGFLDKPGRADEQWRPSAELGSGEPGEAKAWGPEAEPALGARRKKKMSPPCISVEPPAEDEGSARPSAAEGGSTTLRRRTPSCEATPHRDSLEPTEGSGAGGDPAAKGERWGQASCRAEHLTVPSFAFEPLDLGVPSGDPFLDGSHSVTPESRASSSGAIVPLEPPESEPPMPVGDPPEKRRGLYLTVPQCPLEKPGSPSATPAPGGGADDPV

[7] = target: Melanin-concentrating hormone receptor 1 (Homo sapiens, UniProt Q99705); assay: Late-stage fluorescence-based counterscreen for antagonists of the G-protein coupled receptor 7 (GPR7): cell-based dose response assay to identify antagonists of the melanin-concentrating hormone receptor 1 (MCHR1). [Related pubchem assays (depositor defined):AID1861, AID1880, AID1952, AID2148, AID2251, AID2257, AID485339]; assay type: functional;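 note: stimulated with 30 nM MCH peptide agonist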
Sequence of Melanin-concentrating hormone receptor 1 (Q99705 whole entry): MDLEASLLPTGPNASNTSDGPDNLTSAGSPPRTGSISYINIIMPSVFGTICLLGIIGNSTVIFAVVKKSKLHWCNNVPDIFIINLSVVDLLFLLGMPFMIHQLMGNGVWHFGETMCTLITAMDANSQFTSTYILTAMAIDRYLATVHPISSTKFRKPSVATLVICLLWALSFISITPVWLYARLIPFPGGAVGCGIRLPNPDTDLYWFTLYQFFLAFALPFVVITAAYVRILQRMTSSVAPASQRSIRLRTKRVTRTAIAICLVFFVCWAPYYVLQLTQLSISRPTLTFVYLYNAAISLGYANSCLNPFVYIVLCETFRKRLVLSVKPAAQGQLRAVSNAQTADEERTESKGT

Structure (SMILES): COC(=O)c1c(Cl)c2n3ccccc3c(C)c(-c3ccccc3)c-2c1C(=O)OC
IC50 [2]: 0.303 µM (active)
EC50 [3]: 25.8 µM (active)
IC50 [4]: 0.0555 µM (active)
IC50 (Genome polyprotein): 74.5 µM (active)
EC50 [5]: 47.5 µM (active)

Structure (SMILES): CC(C)N(Cc1nc(-c2ccc(Cl)cc2)no1)C(=O)CCCN1C(=O)c2ccccc2C1=O
EC50 [6]: 3.89 µM (active)

Structure (SMILES): CCc1cnn(-c2ccc(C(C)C)cc2)c(=O)c1Oc1ccc(OC)cc1
IC50 [7]: 12.8 µM (inactive)

Structure (SMILES): COc1ccc(Oc2c(C3CC3)cnn(-c3ccc(C)cc3)c2=O)cc1
IC50 [7]: 5.4 µM (active)

Now from value to molecule:

EC50 [1]: 3.76 µM (active)
Structure (SMILES): O=C(Nc1ccccc1Oc1cccnc1)C1CCCN(Cc2cccc(Cl)c2)C1 (stereo unspecified)

EC50 [1]: 5.96 µM (active)
Structure (SMILES): Cc1ccc(N2CCN(C(=O)c3ccccc3F)CC2)c(C)c1

EC50 [6]: 1.98 µM (active)
Structure (SMILES): O=C(Cc1ccccc1F)Nc1nc(-c2cccs2)cs1
